Assay results published in ChEMBL document CHEMBL5584353, “Design, Synthesis, and Biological Evaluation of Potent EZH2/LSD1 Dual Inhibitors for Prostate Cancer” (J Med Chem, 2024).
The source made the active and inactive calls. No cut-off for these calls is given here.

Experiments:
CWR22R [1] = experiment: Synergistic antitumor activity against human 22Rv1 cells xenografted in BALB/c mouse assessed as reduction in tumor growth at 80 mg/kg,ip administrated daily for 31 days in presence of enzalutamide relative to control; type: functional, organism-based; conditions: time 31.0 day
[2] = biological target: T1, Lysine-specific histone demethylase 1A (Homo sapiens, UniProt O60341); experiment: Inhibition of LSD1 in human LNCaP cells assessed as downregulation of AR expression incubated for 48 hrs by Western blotting analysis; type: cell-based
[3] = biological target: T1, Lysine-specific histone demethylase 1A; experiment: Inhibition of LSD1 in human PC-3 cells assessed as upregulation of H3K9me2 expression at 1 to 5 uM incubated for 5 days by Western blotting analysis; type: cell-based; conditions: dose 1-5 µM, time 5.0 day
[4] = Inhibition of LSD2 (unknown origin); parameters: species or system Homo sapiens
[5] = Metabolic stability in Sprague-Dawley rat hepatocyte assessed as half life at 20 uM incubated for 60 mins by HPLC-MS/MS analysis; type: ADME, cell-based; conditions: hepatocytes
PC-3 = experiment: Antiproliferative activity against human PC-3 cells assessed as inhibition of cell growth incubated for 6 to 7 days by MTS assay; type: functional, cell-based; conditions: time 6-7 day
NCI-H292 = experiment: Antiproliferative activity against human NCI-H292 cells assessed as inhibition of cell growth incubated for 6 to 7 days by MTS assay; type: functional, cell-based; conditions: time 6-7 day
CWR22R [6] = experiment: Antitumor activity against human 22Rv1 cells xenografted in BALB/c mouse assessed as reduction in tumor weight at 80 mg/kg,ip administrated daily for 31 days; type: functional, organism-based; conditions: time 31.0 day
CWR22R [7] = experiment: Induction of apoptosis in human 22Rv1 cells at 1 uM incubated for 5 days by Annexin V-FITC/PI staining based flow cytometric analysis (reference value: 8.97 %); type: functional; conditions: time 5 day
LNCaP [8] = experiment: Growth inhibition of human LNCaP cells incubated for 6 to 7 days by MTS assay; type: functional; conditions: time 6-7 day
CWR22R [9] = experiment: Antimigratory activity in human 22Rv1 cells assessed as downregulation of N-cadherin expression at 3 to 10 uM incubated for 48 hrs by Western blotting analysis; type: functional, cell-based; conditions: dose 3-10 µM
LNCaP [10] = experiment: Synergistic antiproliferative activity against human LNCaP cells assessed as inhibition of cell growth at 6.25 to 100 uM incubated for 6 to 7 days in presence of enzalutamide by MTS assay; type: functional, cell-based; conditions: dose 6.25-100 µM, time 6-7 day
[11] = biological target: T1, Lysine-specific histone demethylase 1A; experiment: Binding affinity to recombinant human LSD1 assessed as increase in thermal stability at 5 uM at 38 to 58 degreeC incubated for 48 hrs by cellular thermal shift assay
MV4-11 = experiment: Antiproliferative activity against human MV4-11 cells assessed as inhibition of cell growth incubated for 6 to 7 days by MTS assay; type: functional, cell-based; conditions: time 6-7 day
CWR22R [12] = experiment: Synergistic antiproliferative activity against human 22Rv1 cells assessed as inhibition of cell growth at 6.25 to 100 uM incubated for 6 to 7 days in presence of enzalutamide by MTS assay; type: functional, cell-based; conditions: dose 6.25-100 µM, time 6-7 day
[13] = Tmax in BALB/c mouse at 50 mg/kg,po measured upto 24 hrs by HPLC-MS/MS analysis; type: ADME, organism-based; conditions: in vivo
CWR22R [14] = experiment: Induction of cell cycle arrest in human 22Rv1 cells assessed as accumulation of cells at G0/G1 phase incubated for 72 hrs by propidium iodide/RNase staining based flow cytometric analysis; type: functional
[15] = Half life in BALB/c mouse at 50 mg/kg,po measured upto 24 hrs by HPLC-MS/MS analysis; type: ADME, organism-based; conditions: in vivo
SU-DHL-2 = experiment: Antiproliferative activity against human SU-DHL-2 cells assessed as inhibition of cell growth incubated for 6 to 7 days by MTS assay; type: functional, cell-based; conditions: time 6-7 day
[16] = biological target: T1, Lysine-specific histone demethylase 1A; experiment: Inhibition of LSD1 in human LNCaP cells assessed as downregulation of AR-V7 expression at 1 to 20 uM incubated for 48 hrs by Western blotting analysis; type: cell-based; conditions: dose 1-20 µM
[17] = biological target: T1, Lysine-specific histone demethylase 1A; experiment: Inhibition of LSD1 in human PC-3 cells assessed as upregulation of H3K4me2 expression at 1 to 5 uM incubated for 5 days by Western blotting analysis; type: cell-based; conditions: dose 1-5 µM, time 5.0 day
LNCaP C4-2B = experiment: Antiproliferative activity against human LNCaP C4-2B cells assessed as inhibition of cell growth incubated for 6 to 7 days by MTS assay; type: functional, cell-based; conditions: time 6-7 day
MDA-MB-231 = experiment: Antiproliferative activity against human MDA-MB-231 cells assessed as inhibition of cell growth incubated for 6 to 7 days by MTS assay; type: functional, cell-based; conditions: time 6-7 day
CWR22R [18] = conditions: Homo sapiens, dose 80.0 mg/kg, route ip, time 31.0 day
[19] = Metabolic stability in Sprague-Dawley rat hepatocyte assessed as compound remaining at 20 uM incubated for 30 mins by HPLC-MS/MS analysis; type: ADME, cell-based; conditions: hepatocytes, read-out: Stability
[20] = biological target: T1, Lysine-specific histone demethylase 1A; experiment: Inhibition of LSD1 in human 22Rv1 cells assessed as upregulation of H3K4me2 expression at 1 to 5 uM incubated for 5 days by Western blotting analysis; type: cell-based; conditions: dose 1-5 µM, time 5.0 day
CWR22R [21] = conditions: Homo sapiens, dose 80.0 mg/kg, route ip, time 31.0 day; remark: listed apart in the source
[22] = biological target: T1, Lysine-specific histone demethylase 1A; experiment: Inhibition of LSD1 in human 22Rv1 cells assessed as downregulation of AR-V7 expression at 1 to 20 uM incubated for 48 hrs by Western blotting analysis; type: cell-based; conditions: dose 1-20 µM
[23] = Metabolic stability in Sprague-Dawley rat hepatocyte assessed as compound remaining at 20 uM incubated for 120 mins by HPLC-MS/MS analysis; type: ADME, cell-based; conditions: hepatocytes, read-out: Stability
CWR22R [24] = experiment: Antitumor activity against human 22Rv1 cells xenografted in BALB/c mouse assessed as tumor growth inhibition at 80 mg/kg,ip administrated daily for 31 days relative to control; type: functional; conditions: 22Rv1, 744 h, time 31 day, read-out: TGI
[25] = Cmax in BALB/c mouse at 50 mg/kg,ip measured upto 24 hrs by HPLC-MS/MS analysis; type: ADME, organism-based; conditions: in vivo
PC-9 = experiment: Antiproliferative activity against human PC-9 cells assessed as inhibition of cell growth incubated for 6 to 7 days by MTS assay; type: functional, cell-based; conditions: time 6-7 day
[26] = biological target: T1, Lysine-specific histone demethylase 1A; experiment: Inhibition of LSD1 in human 22Rv1 cells assessed as downregulation of AR expression incubated for 48 hrs by Western blotting analysis; type: cell-based

inhibition [2]: Dose-Dependent Effect
inhibition [3]: Active
IC50 [4]: 16.6 µM
half-life at 20 µM [5]: 330 min
GI50 (LNCaP [8]): 1630 nM
Activity [11]: Active
Tmax [13]: 1 h
half-life [15]: 210 min
inhibition [16]: Active
inhibition [17]: Active
remaining at 0.5 h, 20 µM [19]: 93%
inhibition [20]: Active
inhibition [22]: Active
remaining at 2 h, 20 µM [23]: 75.8%
Cmax [25]: 20600 ng/mL
inhibition [26]: Dose-Dependent Effect
SMILES: CCN(c1cc(-c2ccc([C@@H]3C[C@H]3N(CC3CCOCC3)C(=O)OC(C)(C)C)cc2)cc(C(=O)NCc2c(C)cc(C)[nH]c2=O)c1C)C1CCOCC1 (racemic)
Activity (CWR22R [1]): Active
Activity (PC-3): Active
Activity (NCI-H292): Active
Activity (CWR22R [6]): Active
Activity (CWR22R [7]): 17.71%
Activity (CWR22R [9]): Active
Activity (LNCaP [10]): Active
Activity (MV4-11): Active
Activity (CWR22R [12]): Active
Activity (CWR22R [14]): Dose-Dependent Effect
Activity (SU-DHL-2): Active
Activity (LNCaP C4-2B): Active
Activity (MDA-MB-231): Active
inhibition (CWR22R [18]): Active
inhibition (CWR22R [21]): Active
inhibition in vivo at 80 mg/kg (CWR22R [24]): 52.2%
Activity (PC-9): Active
